Test results as given in patent publication US6525001B1, “Substituted pyrimidine and pyridine herbicides” (Mid-American Commercialization Corporation, priority 1997, dated 2003).

Experiments:
Type in all cases: in vivo
Set-up in all cases: key: 0 is no effect; 10 is complete control
[1] = test system: bedstraw (Galium aparine); assay: Test B pre-/postemergence
Outline: (§1)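 Scored visually 0 (none) to 10 (complete control) against untreated plants after twelve to sixteen greenhouse days. Test chemicals, formulated in surfactant-containing non-phytotoxic solvent, applied to soil after planting and, separately, onto 1- to 4-leaf (2–18 cm) plants.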

rape (Brassica napus) = assay: Test B pre-/postemergence
Outline: as §1

[2] = test system: bamyardgrass (Echinochloa crus-galli); assay: Test B flood test
Outline: (§2)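 Flood test on plants grown to the 2-leaf stage; treated plants kept in greenhouse twelve to sixteen days, then visually rated against controls on a 0 (no effect) to 10 (complete control) scale.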

[3] = test system: duck salad (Heteranthera limosa); assay: Test B flood test
Outline: as §2

rice (Oryza sativa) = assay: Test B flood test
Outline: as §2

[4] = test system: smallflower flatsedge (Cyperus difformis); assay: Test B flood test
Outline: as §2

[5] = Preemergence, Rate 62 g/ha, scale of 0 to 10
[6] = Rate 62 g/ha, Postemergence (flood test)
[7] = Rate 125 g/ha, Postemergence section (flood test species)
[8] = Rate 250 g/ha, Postemergence (flood test species)
[9] = Rate 500 g/ha, Postemergence (flood test species)
[10] = Rate 125 g/ha, Postemergence, flood test

SMILES: Cc1cnc(-c2ccc(C(F)(F)F)cc2)nc1C(=O)c1cccc(C(F)(F)F)c1 [Compound 73]
- Plant response rating, Bedstraw [1, 5]: 2
- Bedstraw plant response rating ([1]; Rate 62 g/ha, Postemergence): 9
- Bedstraw plant response rating ([1]; Rate 125 g/ha, Postemergence): 9
- Plant response rating, Bedstraw ([1]; Rate 125 g/ha, Preemergence): 8
- Plant response rating, Bedstraw ([1]; Rate 250 g/ha, Postemergence): 9
- Plant response rating, Bedstraw ([1]; Rate 250 g/ha, Preemergence): 9
- Plant response rating, Bedstraw ([1]; Rate 500 g/ha, Postemergence): 9
- Plant response rating, Bedstraw ([1]; Rate 500 g/ha, Preemergence): 10
- Plant response rating, Rape (rape (Brassica napus); [5]): 2
- Rape plant response rating (rape (Brassica napus); Rate 62 g/ha, Postemergence): 10
- Rape plant response rating (rape (Brassica napus); Rate 125 g/ha, Postemergence): 10
- Plant response rating, Rape (rape (Brassica napus); Rate 125 g/ha, Preemergence): 6
- Plant response rating, Rape (rape (Brassica napus); Rate 250 g/ha, Postemergence): 10
- Plant response rating, Rape (rape (Brassica napus); Rate 250 g/ha, Preemergence): 6
- Plant response rating, Rape (rape (Brassica napus); Rate 500 g/ha, Postemergence): 10
- Plant response rating, Rape (rape (Brassica napus); Rate 500 g/ha, Preemergence): 10
- Barnyardgrass plant response rating [2, 6]: 4
- Barnyardgrass plant response rating [2, 7]: 5
- Plant response rating, Barnyardgrass [2, 8]: 6
- Plant response rating, Barnyardgrass [2, 9]: 4
- Ducksalad plant response rating [3, 6]: 1
- Ducksalad plant response rating [3, 7]: 1
- Plant response rating, Ducksalad [3, 8]: 2
- Plant response rating, Ducksalad [3, 9]: 3
- Rice plant response rating (rice (Oryza sativa); [6]): 5
- Rice plant response rating (rice (Oryza sativa); [7]): 5
- Plant response rating, Rice (rice (Oryza sativa); [8]): 6
- Plant response rating, Rice (rice (Oryza sativa); [9]): 3
- S. Flatsedge plant response rating [4, 6]: 3
- S. Flatsedge plant response rating [4, 7]: 3
- Plant response rating, S. Flatsedge [4, 8]: 6
- Plant response rating, S. Flatsedge [4, 9]: 3

SMILES: Cc1cnc(-n2ccc(C(F)(F)C(F)(F)F)n2)nc1C(=O)c1cccc(OC(F)(F)F)c1 [Compound 62]
- Plant response rating, Bedstraw [1, 5]: 0
- Bedstraw plant response rating ([1]; Rate 62 g/ha, Postemergence): 3
- Bedstraw plant response rating ([1]; Rate 125 g/ha, Postemergence): 3
- Plant response rating, Bedstraw ([1]; Rate 125 g/ha, Preemergence): 1
- Plant response rating, Bedstraw ([1]; Rate 250 g/ha, Postemergence): 3
- Plant response rating, Bedstraw ([1]; Rate 250 g/ha, Preemergence): 2
- Plant response rating, Bedstraw ([1]; Rate 500 g/ha, Postemergence): 4
- Plant response rating, Bedstraw ([1]; Rate 500 g/ha, Preemergence): 6
- Plant response rating, Rape (rape (Brassica napus); [5]): 0
- Rape plant response rating (rape (Brassica napus); Rate 62 g/ha, Postemergence): 2
- Rape plant response rating (rape (Brassica napus); Rate 125 g/ha, Postemergence): 2
- Plant response rating, Rape (rape (Brassica napus); Rate 125 g/ha, Preemergence): 1
- Plant response rating, Rape (rape (Brassica napus); Rate 250 g/ha, Postemergence): 2
- Plant response rating, Rape (rape (Brassica napus); Rate 250 g/ha, Preemergence): 2
- Plant response rating, Rape (rape (Brassica napus); Rate 500 g/ha, Postemergence): 3
- Plant response rating, Rape (rape (Brassica napus); Rate 500 g/ha, Preemergence): 3
- Barnyardgrass plant response rating [2, 6]: 1
- Barnyardgrass plant response rating [2, 7]: 2
- Plant response rating, Barnyardgrass [2, 8]: 3
- Plant response rating, Barnyardgrass [2, 9]: 4
- Ducksalad plant response rating [3, 6]: 0
- Ducksalad plant response rating [3, 7]: 0
- Plant response rating, Ducksalad [3, 8]: 0
- Plant response rating, Ducksalad [3, 9]: 2
- Rice plant response rating (rice (Oryza sativa); [6]): 0
- Rice plant response rating (rice (Oryza sativa); [7]): 0
- Plant response rating, Rice (rice (Oryza sativa); [8]): 0
- Plant response rating, Rice (rice (Oryza sativa); [9]): 0
- S. Flatsedge plant response rating [4, 6]: 3
- S. Flatsedge plant response rating [4, 7]: 6
- Plant response rating, S. Flatsedge [4, 8]: 7
- Plant response rating, S. Flatsedge [4, 9]: 8

SMILES: CCc1cnc(-c2ccc(C(F)(F)F)cc2)nc1Cc1cccc(C(F)(F)F)c1 [Compound 22]
- Bedstraw plant response rating ([1]; Rate 62 g/ha, Preemergence): 6
- Plant response rating, Bedstraw ([1]; Rate 125 g/ha, Postemergence): 8
- Bedstraw plant response rating ([1]; Rate 125 g/ha, Preemergence): 7
- Plant response rating, Bedstraw ([1]; Rate 250 g/ha, Postemergence): 8
- Plant response rating, Bedstraw ([1]; Rate 250 g/ha, Preemergence): 7
- Plant response rating, Rape (rape (Brassica napus); Rate 62 g/ha, Postemergence): 10
- Rape plant response rating (rape (Brassica napus); Rate 62 g/ha, Preemergence): 5
- Plant response rating, Rape (rape (Brassica napus); Rate 125 g/ha, Postemergence): 10
- Rape plant response rating (rape (Brassica napus); Rate 125 g/ha, Preemergence): 7
- Plant response rating, Rape (rape (Brassica napus); Rate 250 g/ha, Postemergence): 10
- Plant response rating, Rape (rape (Brassica napus); Rate 250 g/ha, Preemergence): 10
- Plant response rating, Barnyardgrass [2, 6]: 4
- Plant response rating, Barnyardgrass [2, 10]: 5
- Plant response rating, Barnyardgrass [2, 8]: 6
- Plant response rating, Ducksalad [3, 6]: 3
- Plant response rating, Ducksalad [3, 10]: 4
- Plant response rating, Ducksalad [3, 8]: 6
- Plant response rating, Rice (rice (Oryza sativa); [6]): 3
- Plant response rating, Rice (rice (Oryza sativa); [10]): 4
- Plant response rating, Rice (rice (Oryza sativa); [8]): 5
- Plant response rating, S. Flatsedge [4, 6]: 3
- Plant response rating, S. Flatsedge [4, 10]: 8
- Plant response rating, S. Flatsedge [4, 8]: 9

SMILES: Cc1cnc(-n2cnc(C(F)(F)F)n2)nc1Cn1ccc(C(F)(F)F)n1 [Compound 51]
- Plant response rating, Bedstraw ([1]; Rate 62 g/ha, Postemergence): 9
- Bedstraw plant response rating ([1]; Rate 62 g/ha, Preemergence): 8
- Bedstraw plant response rating ([1]; Rate 125 g/ha, Postemergence): 10
- Plant response rating, Bedstraw ([1]; Rate 125 g/ha, Preemergence): 10
- Plant response rating, Bedstraw ([1]; Rate 250 g/ha, Postemergence): 10
- Plant response rating, Bedstraw ([1]; Rate 250 g/ha, Preemergence): 9
- Plant response rating, Rape (rape (Brassica napus); Rate 62 g/ha, Postemergence): 9
- Rape plant response rating (rape (Brassica napus); Rate 62 g/ha, Preemergence): 10
- Rape plant response rating (rape (Brassica napus); Rate 125 g/ha, Postemergence): 9
- Plant response rating, Rape (rape (Brassica napus); Rate 125 g/ha, Preemergence): 10
- Plant response rating, Rape (rape (Brassica napus); Rate 250 g/ha, Postemergence): 10
- Plant response rating, Rape (rape (Brassica napus); Rate 250 g/ha, Preemergence): 10
- Plant response rating, Barnyardgrass [2, 6]: 5
- Barnyardgrass plant response rating [2, 7]: 6
- Plant response rating, Barnyardgrass [2, 8]: 7
- Plant response rating, Ducksalad [3, 6]: 8
- Ducksalad plant response rating [3, 7]: 9
- Plant response rating, Ducksalad [3, 8]: 9
- Plant response rating, Rice (rice (Oryza sativa); [6]): 3
- Rice plant response rating (rice (Oryza sativa); [7]): 5
- Plant response rating, Rice (rice (Oryza sativa); [8]): 8
- Plant response rating, S. Flatsedge [4, 6]: 9
- S. Flatsedge plant response rating [4, 7]: 9
- Plant response rating, S. Flatsedge [4, 8]: 9

SMILES: Cc1cnc(-n2cnc(C(F)(F)F)n2)nc1C(=O)c1cccc(OC(F)(F)F)c1 [Compound 64]
- Plant response rating, Bedstraw [1, 5]: 3
- Bedstraw plant response rating ([1]; Rate 62 g/ha, Postemergence): 3
- Bedstraw plant response rating ([1]; Rate 125 g/ha, Postemergence): 4
- Plant response rating, Bedstraw ([1]; Rate 125 g/ha, Preemergence): 8
- Plant response rating, Bedstraw ([1]; Rate 250 g/ha, Postemergence): 7
- Plant response rating, Bedstraw ([1]; Rate 250 g/ha, Preemergence): 8
- Plant response rating, Bedstraw ([1]; Rate 500 g/ha, Postemergence): 9
- Plant response rating, Bedstraw ([1]; Rate 500 g/ha, Preemergence): 9
- Plant response rating, Rape (rape (Brassica napus); [5]): 3
- Rape plant response rating (rape (Brassica napus); Rate 62 g/ha, Postemergence): 3
- Rape plant response rating (rape (Brassica napus); Rate 125 g/ha, Postemergence): 4
- Plant response rating, Rape (rape (Brassica napus); Rate 125 g/ha, Preemergence): 4
- Plant response rating, Rape (rape (Brassica napus); Rate 250 g/ha, Postemergence): 4
- Plant response rating, Rape (rape (Brassica napus); Rate 250 g/ha, Preemergence): 8
- Plant response rating, Rape (rape (Brassica napus); Rate 500 g/ha, Postemergence): 4
- Plant response rating, Rape (rape (Brassica napus); Rate 500 g/ha, Preemergence): 10
- Barnyardgrass plant response rating [2, 6]: 2
- Barnyardgrass plant response rating [2, 7]: 3
- Plant response rating, Barnyardgrass [2, 8]: 4
- Plant response rating, Barnyardgrass [2, 9]: 5
- Ducksalad plant response rating [3, 6]: 4
- Ducksalad plant response rating [3, 7]: 6
- Plant response rating, Ducksalad [3, 8]: 6
- Plant response rating, Ducksalad [3, 9]: 9
- Rice plant response rating (rice (Oryza sativa); [6]): 1
- Rice plant response rating (rice (Oryza sativa); [7]): 1
- Plant response rating, Rice (rice (Oryza sativa); [8]): 2
- Plant response rating, Rice (rice (Oryza sativa); [9]): 3
- S. Flatsedge plant response rating [4, 6]: 8
- S. Flatsedge plant response rating [4, 7]: 8
- Plant response rating, S. Flatsedge [4, 8]: 8
- Plant response rating, S. Flatsedge [4, 9]: 9
